Results reported in patent US20170045513A1, “METHODS OF DIAGNOSING CELIAC DISEASE USING IP-10” (ImmusanT, Inc., priority 2014, published 2017).
Non-standard residues stand in square brackets, D forms with d. pGlu = O=C1CC[C@@H](C(=O)O)N1

What was measured:
Assay type in all cases: cell-based, human
gluten-reactive T cells [1] = assay: Cytokine release assays taken together (IFNγ ELISpot, whole blood IFNγ and IP-10, in-tube IFNγ ELISA); settings: blood collected after oral gluten challenge
Method: Gluten peptide solutions for addition to whole blood were arranged according to standardized templates in sterile 96-well U-bottom plates (30 μL/well). Plates were sealed with adhesive ELISA plate cover slips before the plastic lid was replaced and being frozen at −80° C. Whole blood assay (WBA) “medium” (1% DMSO in 90% PBS and 9% normal saline), mitogen (PHA-L, Sigma-Aldrich #L2769; St Louis Mo.) 100 μg/ml in WBA medium, and CEF diluted to 10 μg/ml in PBS with a final concentration of 1% DMSO were frozen separately in sterile cryovials. 96-well plates and cryovials with frozen incubation solutions were shipped on dry ice to the clinical site where blood was collected and incubations performed. Solutions were thawed at room temperature for 10 min just before being added to whole blood. 96-well plates were thawed while being centrifuged at 300 g to avoid surface condensation. A multi-channel pipette was used to efficiently transfer 25 μL of peptide solutions from the original 96-well plate to corresponding wells in a fresh sterile 96-well U-bottom plate. Once incubation solutions had been added, 225 μL of whole blood was added to each well and the plate transferred to incubate for 24 h at 37° C. 5% CO2. […] Individual peptides were incubated at a final assay concentration of 51.1M. Final concentrations of individual peptides assessed in P3 was 0.05-50 μg/mL, and in P14 and P13 pools 0.025-25 μM. The P71 pool was tested at between 0.005-10 pg/mL, the highest tested concentration being the maximal possible not exceeding 0.1% DMSO. Peptide pools, mitogen, and medium only were assessed in triplicate wells, and on Day-6 individual peptides were assessed in duplicate wells. Incubations were terminated after 24 h, and 96-well plates centrifuged at 300 g for 10 min. A total of approximately 90 to 120 μL of plasma was removed from each well taking care to avoid red cell contamination, and transferred into corresponding wells of two further 96-well plates (one with 30 μL/well and the residual in the second plate). Plasmas were frozen at −80° C. and later shipped on dry ice to the central lab where IP-10 and IFNγ multiplex bead assays were performed according to manufacturer's instructions using 25 μL plasma per well (Milliplex® MAP Human Cytokine/Chemokine Magnetic Bead Panel #HCYTOMAG-60k-02; EMD Millipore Corp., Billerica, Mass. 01821) and analysed with the Luminex® MAGPIX® System xPONENT® software (Luminex Corporation, Austin Tex. 78727). Plasma cytokine levels for each assay condition were expressed as the mean analyte concentration of each of the three replicate incubations. Laboratory staff were unaware of the arrangement of peptide solutions incubated with during assay setup and plate counting.
Aliquots of PBS, P3 peptides diluted in PBS (final concentration in blood 3× 50 or CEF to a final concentration 1 μg/mL were prepared in sterile cryovials (0.11 mL/vial) and stored frozen (−80° C.) until immediately before use. P3, CEF and two PBS aliquots were drawn up in separate sterile 0.3 mL insulin syringes with attached 29G×½″ needle (Terumo, SS*30M2913; Elkton Md. 21921). P3, CEF and one PBS aliquot was injected through the stoppers of three separate QuantiFERON® NIL tubes already containing 1 mL blood, and one aliquot of PBS was injected into a QuantiFERON® MITOGEN tube already containing 1 mL blood. All four tubes containing blood and incubation solution were gently inverted ten-times and transferred to incubate at 37° C. 5% CO2. After for 24 h, tubes were centrifuged 300 g 10 min. Plasma was separated and equal volumes placed in two 1.5 mL cryovials. Frozen plasmas were transferred to the central lab where IFNγ levels were measured in triplicate 50 μL samples by ELISA (MABtech Human IFN-γ ELISA development kit HRP, 3420-1H-6; capture mAb 1-D1K). […]

gluten-reactive T cells [2] = assay: 96-well plate whole blood cytokine release, IFNγ by MAGPIX multiplex bead assay; settings: for Percent of maximal response to individual gluten peptides, IFNg: after oral gluten challenge; for IFNγ WB MAGPIX % max Mean: n = 8, blood after oral gluten challenge, individual peptides 5 μM (Peptide 2* of P14, Pepscan: 10 μg/mL (5.45 μM))
gluten-reactive T cells [3] = assay: Overnight IFNγ ELISpot assay with fresh PBMC; settings: for Percent of maximal response to individual gluten peptides, ELISp: after oral gluten challenge; for IFNγ ELISpot % max Mean: n = 5, blood after oral gluten challenge, individual peptides 5 μM (Peptide 2* of P14, Pepscan: 10 μg/mL (5.45 μM))
Method: HLA-DQ2.5-positive celiac disease subjects on gluten-free diet were used in this study. Blood was collected immediately before and 6 days after commencing 3-day oral gluten challenge. Whole blood or PBMCs were incubated with pools or single peptides derived from gluten or recall antigens. IFNγ and IP-10 levels were measured in plasma from the whole blood that was incubated in 96-well plates with peptides or peptide pools. Plasma cytokine/chemokine levels were measured by MAGPIX® multiplex bead assay (IFNγ and IP-10) or by ELISA (IFNγ and IP-10), and PBMC separated from the same blood sample were incubated in overnight IFNγ ELISpot assays.
Overnight IFNγ ELISpot assays (Human IFN-γ ELISpotPRO kit, transparent, ALP; Mabtech AB, #3420-2APT-10) were performed using PBMC freshly separated from heparinized blood diluted 1:1 in PBS with 2% fetal bovine serum (Stemcell Technologies #07905; Vancouver, BC, V5Z 1B3, Canada) overlaid on density gradient medium (Ficoll-Paque™ PLUS; GE Healthcare Lice Sciences #:17-1440-02) in SepMate™-50 tubes (Stemcell Technologies #15460). PBMC (8 million/mL) were resuspended in serum-free medium with gentamicin and phenol red (X-VIVO™15; Lonza, Walkersville Mass. 21793). PBMC (0.4 million/50 pt/well) and incubated with 50 μL 80% X-vivo15, 0.2% DMSO and 20% PBS in three triplicate wells (“medium only”), or with 50 μL PHA-L 20 μg/ml or peptide at 2× final concentration in 80% X-vivo15, 0.2% DMSO and 20% PBS. Peptide solutions to be added to individual ELISpot wells were prepared in 96-well U-bottom plates (60 pt/well) that were then sealed with adhesive ELISA plate cover slips before replacing the plastic lid and being frozen at −80° C. 96-well plates containing peptide solutions were thawed at room temperature for 10 min while being centrifuged at 300 g immediately prior to being added to ELISpot wells. Peptide pools and mitogen were assessed in triplicate wells, and individual peptides were assessed in duplicate wells. X-VIVO™15 (50 μL) was incubated with 80% X-vivo15, 0.2% DMSO and 20% PBS (50 μL) in triplicate wells (“no PBMC” control). A Zeiss automated ELISpot counter was used to determine spot forming units (SFU) per well (Zellnet Inc., Fort Lee, N J 07024). Laboratory staff were unaware of the arrangement of peptide solutions in ELISpot wells during assay setup and plate counting.

Substance | activity relative to Peptide 14 in the cytokine release assays (gluten-reactive T cells [1]) | Percent of maximal response to individual gluten peptides, IFNg (gluten-reactive T cells [2]; Subject 2, Max. 116 pg/mL) | Percent of maximal response to individual gluten peptides, IFNg (gluten-reactive T cells [2]; Subject 3, Max. 799 pg/mL) | Percent of maximal response to individual gluten peptides, IFNg (gluten-reactive T cells [2]; Subject 4, Max. 136 pg/mL) | Percent of maximal response to individual gluten peptides, IFNg (gluten-reactive T cells [2]; Subject 6, Max. 72 pg/mL) | Percent of maximal response to individual gluten peptides, IFNg (gluten-reactive T cells [2]; Subject 7, Max. 17 pg/mL) | Percent of maximal response to individual gluten peptides, IFNg (gluten-reactive T cells [2]; Subject 8, Max. 47 pg/mL) | Percent of maximal response to individual gluten peptides, IFNg (gluten-reactive T cells [2]; Subject 9, Max. 67 pg/mL) | Percent of maximal response to individual gluten peptides, IFNg (gluten-reactive T cells [2]; Subject 10, Max. 229 pg/mL) | IFNγ WB MAGPIX % max Mean (gluten-reactive T cells [2]) [% max] | Percent of maximal response to individual gluten peptides, ELISp (gluten-reactive T cells [3]; Subject 3, Max. 18 SFU) | Percent of maximal response to individual gluten peptides, ELISp (gluten-reactive T cells [3]; Subject 4, Max. 36 SFU) | Percent of maximal response to individual gluten peptides, ELISp (gluten-reactive T cells [3]; Subject 6, Max. 16 SFU) | Percent of maximal response to individual gluten peptides, ELISp (gluten-reactive T cells [3]; Subject 8, Max. 17 SFU) | Percent of maximal response to individual gluten peptides, ELISp (gluten-reactive T cells [3]; Subject 10, Max. 11 SFU) | IFNγ ELISpot % max Mean (gluten-reactive T cells [3]) [% max] | rank of activity among individual gluten peptides (gluten-reactive T cells [1])
(pE)QPFPQPEQPFPLQPEQP-amide ([pGlu]QPFPQPEQPFPLQPEQP-NH2; SMILES CC(C)C[C@H](NC(=O)[C@@H]1CCCN1C(=O)[C@H](Cc1ccccc1)NC(=O)[C@@H]1CCCN1C(=O)[C@H](CCC(N)=O)NC(=O)[C@H](CCC(=O)O)NC(=O)[C@@H]1CCCN1C(=O)[C@H](CCC(N)=O)NC(=O)[C@@H]1CCCN1C(=O)[C@H](Cc1ccccc1)NC(=O)[C@@H]1CCCN1C(=O)[C@H](CCC(N)=O)NC(=O)[C@@H]1CCC(=O)N1)C(=O)N[C@@H](CCC(N)=O)C(=O)N1CCC[C@H]1C(=O)N[C@@H](CCC(=O)O)C(=O)N[C@@H](CCC(N)=O)C(=O)N1CCC[C@H]1C(N)=O) [Peptide 6] | approximately one-half to one-fifth as active as Peptide 14 | 58 % of max | 10 % of max | 54 % of max | 4 % of max | 2 % of max | 6 % of max | 69 % of max | 20 % of max | 28 | 11 % of max | 56 % of max | 31 % of max | 0 % of max | 9 % of max | 21 | –
(pE)QPFPQPELPYPYPQ-amide ([pGlu]QPFPQPELPYPYPQ-NH2; SMILES CC(C)C[C@H](NC(=O)[C@H](CCC(=O)O)NC(=O)[C@@H]1CCCN1C(=O)[C@H](CCC(N)=O)NC(=O)[C@@H]1CCCN1C(=O)[C@H](Cc1ccccc1)NC(=O)[C@@H]1CCCN1C(=O)[C@H](CCC(N)=O)NC(=O)[C@@H]1CCC(=O)N1)C(=O)N1CCC[C@H]1C(=O)N[C@@H](Cc1ccc(O)cc1)C(=O)N1CCC[C@H]1C(=O)N[C@@H](Cc1ccc(O)cc1)C(=O)N1CCC[C@H]1C(=O)N[C@@H](CCC(N)=O)C(N)=O) [Peptide 16] | no more than two-thirds as active as Peptide 14 | 65 % of max | 13 % of max | 16 % of max | 10 % of max | 100 % of max | 0 % of max | 39 % of max | 2 % of max | 31 | 22 % of max | 31 % of max | 19 % of max | 24 % of max | 27 % of max | 24 | –
(pE)PEQPFPEQPIPEQPQPYP-amide ([pGlu]PEQPFPEQPIPEQPQPYP-NH2; SMILES CC[C@H](C)[C@H](NC(=O)[C@@H]1CCCN1C(=O)[C@H](CCC(N)=O)NC(=O)[C@H](CCC(=O)O)NC(=O)[C@@H]1CCCN1C(=O)[C@H](Cc1ccccc1)NC(=O)[C@@H]1CCCN1C(=O)[C@H](CCC(N)=O)NC(=O)[C@H](CCC(=O)O)NC(=O)[C@@H]1CCCN1C(=O)[C@@H]1CCC(=O)N1)C(=O)N1CCC[C@H]1C(=O)N[C@@H](CCC(=O)O)C(=O)N[C@@H](CCC(N)=O)C(=O)N1CCC[C@H]1C(=O)N[C@@H](CCC(N)=O)C(=O)N1CCC[C@H]1C(=O)N[C@@H](Cc1ccc(O)cc1)C(=O)N1CCC[C@H]1C(N)=O) [Peptide 14] | – | 53 % of max | 100 % of max | 100 % of max | 100 % of max | 99 % of max | 100 % of max | 98 % of max | 100 % of max | 94 | 100 % of max | 100 % of max | 100 % of max | 100 % of max | 100 % of max | 100 | most active
